This is an account of results in patent publication US9051592B2, “Methods of ganglioside production” (Garnet BioTherapeutics, Inc., priority 2012, dated 2015).

Where two headings read alike, the source gives them in different places.

Data set [1] relates to Parkinson's disease subjects. Particulars: short-term treatment; Schneider et al., Neurology 50:1630-1636 (1998); cited from earlier work.
The test system of data set [2] is Parkinson's disease subjects. Particulars: five-year study; Schneider et al., J. Neurol. Sci. 292:45-51 (2010); cited from earlier work.
Data set [3] relates to central nervous system lesions in experimental animals. To be noted: background statement; cited from earlier work.
The conditions of data set [4]: pretreatment; background statement; cited from earlier work.
The subject of data set [5] is Affected sheep bone marrow cells (SBM). The experiment in a line: GM1 induction in affected sheep bone marrow cells by different treatments, CTB-Alexa 488 staining (Table 2). Particulars: affected SBM 20,000 cells/well, 72 H (Poly-L-Lysine coated coverslips 6 Days).
In data set [6] the test system is human bone marrow-derived cells (HBM). The experiment in a line: GM1 up-regulation, CTB-HRP normalized to Alamar Blue (Example 3, FIG. 3). The format is cell-based. On the technique in general: Resazurin is reduced to fluorescent resorufin, in cell work by metabolically active cells.
For another data set, the system named is SHSY-5Y. The format is cell-based, human.
Another data set concerns SHSY-S. In kind it is cell-based.
The test system of a further data set is SK-N-AS. The format is cell-based.
In the next data set the test system is CHO-K1. In kind it is cell-based, Chinese Hamster.
Another data set has as its system HEK293. In kind it is cell-based, Human.
For another data set, the system named is GBT-ABMSC. The format is cell-based, Human.
The next data set deals with Lonza BMSC. The experiment in a line: GM1 induction by CLQ treatment, CTB-Alexa488 staining (Table 4). To be noted: Lonza MSC basal medium + growth supplements, 10,000 per well, CLQ 48-120 hours. In kind it is cell-based, Human. On the procedure:
Human bone marrow-derived stromal cells, adipose-derived stromal cells, dermal fibroblasts, and fibroblasts from subjects diagnosed with GM1 gangliosidosis, as well as immortalized neuroblastoma cells (SHSY-5Y, SHSY-S and SK-N-AS), Chinese Hamster Ovary cells (CHO-K1), and Human Embryonic Kidney cells (HEK293) were purchased from commercial sources. Cells were cultured on 24 well plates in standard culture medium, at a density of 2000-20,000 cells/well overnight and either maintained in standard culture medium (CONTROL) or treated with chloroquine (CLQ) according to the conditions listed in Table 4 below. Cells were maintained in a tissue culture incubator at approximately 37° C. in a humidified atmosphere comprising approximately 5% CO2 and approximately 21% O2 balanced with N2. After treatment for 48-120 hours, the cells were fixed with 4% paraformaldehyde and stained with CTB-Alexa488 to detect GM1 ganglioside. Extensive GM1 accumulation is evident in most cells types compared to controls maintained in standard culture media alone. (FIGS. 10 and 11 and Table 4).

For a further data set, the system named is ADSC. The format is cell-based, Human.
Another data set deals with Dermal fibroblast. The format is cell-based, Human.
In a further data set the test system is GM1 fibroblast. The format is cell-based, Human.
For data set [7], the system named is SHSY-5Y, SHSY-S, SK-N-AS, CHO-K1 and HEK293 cells. In kind it is cell-based.
For data set [8], the system named is GBT-ABMSC, Lonza BMSC, Lonza ADSC, dermal fibroblast and GM1 fb cells. In kind it is cell-based, Human.
Data set [9] has as its system Adult Human Bone Marrow Cells.
Data set [10] deals with Affected sheep bone marrow cells (SBM).
In data set [11] the test system is Human bone marrow cells (HBM). Particulars: HBM 20,000 cells/well, serum-free medium 72 H, chloroquine 48 H.
For data set [12], the system named is PC12 (rat adrenal medulla tumor) cells. To be noted: Yuyama et al., FEBS Lett. 580:6972-6976 (2006); cited from earlier work.
Data set [13] relates to HT22 (mouse hippocampal) cells. To be noted: Hirata et al., J. Neurochem. 119:839-847 (2011); cited from earlier work.

`O=C[C@H](O)[C@@H](O)[C@@H](O)[C@H](O)CO` [Switch from No glucose to galactose, galactose]: the “Cell Death” value with SHSY-5Y cells is recorded as “−”.
On to `CCCCCCCCCCCCC/C=C/[C@@H](O)[C@H](CO[C@@H]1O[C@H](CO)[C@@H](O[C@@H]2O[C@H](CO)[C@H](O[C@@H]3O[C@H](CO)[C@H](O)[C@H](O[C@@H]4O[C@H](CO)[C@H](O)[C@H](O)[C@H]4O)[C@H]3NC(C)=O)[C@H](O[C@]3(C(=O)O)C[C@@](O)(CO)[C@@H](NC(C)=O)[C@H]([C@H](O)CO)O3)[C@H]2O)[C@H](O)[C@H]1O)NC(=O)CCCCCCCCCCCCCCCCC` [GM1], for which the symptom reduction result in data set [1] is “significant symptom reduction”. In data set [2], the “clinical benefit of long-term use” value is recorded as “may provide some clinical benefit” and the “safety of long-term use” value was “safe”. Besides, in [3], the “recovery from central nervous system lesions” value was “significant biochemical and behavioral recovery”. Also, in [4], the “damage resulting from neurotoxin exposures” value was “inhibits damage”.
As to `N[C@H]1C(O)O[C@H](CO)[C@@H](O)[C@@H]1O` (some centres unmarked) [Glucosamine, glucosamine], the “Degree of GM1 Staining” value in [5] is given as “also induced GM1, but to a lesser degree”.
For `CCN(CC)CCCC(C)Nc1ccnc2cc(Cl)ccc12` (centres unmarked) [Chloroquine, chloroquine], the “up-regulation of GM1 expression (CTB-HRP normalized to Alamar Blue) versus control” value in data set [6] was “approximately 8 fold”. The “% Increase in Degree of Staining with induction” value with SHSY-5Y amounted to 104%; with SHSY-S, 19%; in the data set with SK-N-AS, 19%; with CHO-K1 it was 83%; in the data set on HEK293, 15%; in the data set on GBT-ABMSC, 65%. The “% Increase in Degree of Staining with induction” value with Lonza BMSC is listed as 119%; in the data set on ADSC, 28%; in the data set on Dermal fibroblast, 63%; with GM1 fibroblast it was 28%. The “GM1 signal (CTB-Alexa488) compared to control conditions, FIG. 10” value in [7] is “more abundant and intense compared to control conditions for all cell types”. Further, the “GM1 signal (CTB-Alexa488) compared to control conditions, FIG. 11” value in [8] is “more abundant and intense compared to control conditions for all cell types”. Further, the Cell Death in data set [9] is on record as 10-20%; with SHSY-5Y cells it was “+”. In [10], the “Degree of Cell Death” value is “+”. Moreover, the “Degree of GM1 Staining” value is “+++++” in [11]; “most intense staining” in data set [11] (listed as CLQ); “also induced GM1, but not as much as CLQ/NIM” in data set [5] (listed as CLQ). Moreover, in data set [12], the “accumulation in PC12 cells” value was “induce accumulation”. The “GM1 levels in HT22 cells” value in data set [13] is recorded as “only moderately increased GM1 levels”.
With PDGF, in data set [10], the “Degree of Cell Death” value is “−”.
